From PMC5786788, “Antimicrobial Octapeptin C4 Analogues Active against Cryptococcus Species” (Antimicrobial Agents and Chemotherapy, 2018)
≈ marks a conversion by molar mass, not a printed value. Like-named read-outs stand apart in the source and are kept apart here. Where a SMILES comes first, the peptide text is derived from it. Bridges are numbered along the chain shown (N, C = ends). [ ]: non-standard residue; d: D form. The star is where a group is joined. Decanoyl(3R-OH) = CCCCCCC[C@@H](O)CC(=O)*; Dab = NCC[C@H](N)C(=O)O

Tests used:
[1] = tested on: C. neoformans var. grubii; test: organism not typed
Description: The MICs of the yeast strains for PMB, PME, and octapeptin C4 and its derivatives were determined in accordance with CLSI M27-A2 guidelines using YNB (Becton Dickinson, USA) medium supplemented with 10 mM ammonium sulfate and 2% glucose, a final inoculum concentration of 1.5 × 10^3 to 2.0 × 10^3 cells/ml, and incubation at 35°C for 72 h ([39]). […] The MICs for PMB, PME, and octapeptin C4 for A. fumigatus were determined in accordance with the CLSI M38-A2 guidelines ([40]) using synthetic RPMI 1640 medium (with glutamine, without bicarbonate and with phenol red; Life Technologies, USA). The final inoculum concentration was 0.4 × 10^4 to 5 × 10^4 cells/ml, with incubation at 35°C for 48 h. […] All assays were completed in triplicate. Fluconazole was used as a positive control where the MIC was determined at both 50% growth (in accordance with CLSI M27-A2 guidelines) and when there was a “no visible growth” reading. […]

[2] = tested on: C. neoformans var. gattii; test: microbe, parasite or virus in culture; details: no visible growth
Description: (§1) The MICs of the yeast strains for PMB, PME, and octapeptin C4 and its derivatives were determined in accordance with CLSI M27-A2 guidelines using YNB (Becton Dickinson, USA) medium supplemented with 10 mM ammonium sulfate and 2% glucose, a final inoculum concentration of 1.5 × 10^3 to 2.0 × 10^3 cells/ml, and incubation at 35°C for 72 h ([39]). […] The MICs for PMB, PME, and octapeptin C4 for A. fumigatus were determined in accordance with the CLSI M38-A2 guidelines ([40]) using synthetic RPMI 1640 medium (with glutamine, without bicarbonate and with phenol red; Life Technologies, USA). The final inoculum concentration was 0.4 × 10^4 to 5 × 10^4 cells/ml, with incubation at 35°C for 48 h. […] All assays were completed in triplicate. Fluconazole was used as a positive control where the MIC was determined at both 50% growth (in accordance with CLSI M27-A2 guidelines) and when there was a “no visible growth” reading.

[3] = tested on: C. neoformans var. neoformans; test: microbe, parasite or virus in culture; details: Cryptococcus neoformans, no visible growth
Description: as §1

C. gattii MMRL 2651 = tested on: C. gattii MMRL 2651
Description: (§2) A broth microdilution assay was initially used to characterize the antifungal activity of the cyclic lipopeptides ([39], [40]). […] common pathogenic yeasts (C. albicans, C. glabrata, C. parapsilosis, C. neoformans, and C. gattii) and one pathogenic mold (A. fumigatus) were tested to determine the MIC for each compound (Table 1) using broth microdilution. […] The only structural difference between these molecules is the presence of a phenylalanine residue at position 6 in PMB; in PME a D-leucine is present at this location (Fig. 1).
(§3) Fungal strains were stored in 15% glycerol at −80°C until use. The fungal strains used were H99 (C. neoformans type strain) ([55]), cap59Δ (an acapsular H99 mutant) ([56]), ATCC 90113 (C. neoformans), MMRL 2651 (C. gattii), ATCC 90028 (Candida albicans), ATCC 90030 (Candida glabrata), ATCC 22019 (Candida parapsilosis), and ATCC MYA 3626 (Aspergillus fumigatus). Yeasts were cultured in liquid (1% yeast extract, 2% Bacto peptone, 2% glucose) or solid (additional 2% agar) yeast extract-peptone-dextrose (YPD) media at 30°C and maintained at 4°C for no longer than 2 weeks. A. fumigatus was prepared on potato dextrose medium at 30°C and maintained at 4°C for no longer than 2 weeks.
as §1

C. neoformans ATCC 90113 = details: ATCC 90113, 72 h
Description: as §2, §3, §1

C. neoformans H99 = details: H99, 72 h
Description: as §2, §3, §1

[4] = tested on: C. neoformans H99 (cap59Δ); assay type: cell-based, Cryptococcus neoformans; details: Table 2; triplicate, values consistent across replicates
Text: The different susceptibility of C. neoformans and C. gattii to PMB compared to other pathogenic fungi such as C. albicans and A. fumigatus has been postulated to arise from differences in cell surface composition ([38]). One key difference is the presence of a negatively charged polysaccharide capsule in Cryptococcus spp. proposed to concentrate the cationic lipopeptides at the cell surface ([38]). To examine this potential interaction for the octapeptin series, a C. neoformans cap59Δ mutant strain deficient in the secretion of negatively charged glucuronoxylomannan (an α1–3-linked mannan containing β1,2 and β1,4 xylosyl substitutions, as well as β1,2-linked glucuronyl residues) ([41], [42]), was tested against octapeptin C4 in comparison to PMB.
as §3, §1

C[C@@H]1[C@H](O)[C@@H](C)/C=C/C=C/C=C/C=C/C=C/C=C/C=C/[C@H](O[C@@H]2O[C@H](C)[C@@H](O)[C@H](N)[C@@H]2O)C[C@@H]2O[C@](O)(C[C@@H](O)C[C@@H](O)[C@H](O)CC[C@@H](O)C[C@@H](O)CC(=O)O[C@H]1C)C[C@H](O)[C@H]2C(=O)O [Amphotericin B, amphotericin B]
MIC [1]: 3.13 µg/mL (≈ 3.39 µM) | MIC ([1]; Cryptococcus neoformans): 3.13 µg/mL (≈ 3.39 µM) | MIC ([1]; strain 486 (USA), no visible growth): 3.13 µg/mL (≈ 3.39 µM) | MIC ([1]; strain 488 (AIDS+, pre-HAART USA), no visible growth): 3.13 µg/mL (≈ 3.39 µM) | MIC ([1]; strain 490 (USA), no visible growth): 3.13 µg/mL (≈ 3.39 µM) | MIC ([1]; strain 496 (USA), no visible growth): 3.13 µg/mL (≈ 3.39 µM) | MIC ([1]; strain 500 (USA), no visible growth): 3.13 µg/mL (≈ 3.39 µM) | MIC ([1]; strain 502 (ARR3+ USA), no visible growth): 3.13 µg/mL (≈ 3.39 µM) | MIC ([1]; strain 505 (India), no visible growth): 3.13 µg/mL (≈ 3.39 µM) | MIC ([1]; strain 507 (India), no visible growth): 3.13 µg/mL (≈ 3.39 µM) | MIC ([1]; strain 510 (VNII India), no visible growth): 3.13 µg/mL (≈ 3.39 µM) | MIC ([1]; strain 512 (India), no visible growth): 3.13 µg/mL (≈ 3.39 µM) | MIC ([1]; strain 516 (India), no visible growth): 3.13 µg/mL (≈ 3.39 µM) | MIC ([1]; strain 518 (VNI India), no visible growth): 3.13 µg/mL (≈ 3.39 µM) | MIC ([1]; strain 522 (India), no visible growth): 3.13 µg/mL (≈ 3.39 µM) | MIC ([1]; strain 525 (India), no visible growth): 3.13 µg/mL (≈ 3.39 µM) | MIC ([1]; strain 1188 (Japan lung), no visible growth): 3.13 µg/mL (≈ 3.39 µM) | MIC ([1]; strain 1194 (Italy), no visible growth): 3.13 µg/mL (≈ 3.39 µM) | MIC ([1]; strain 1196 (Botswana CSF/AIDS), no visible growth): 3.13 µg/mL (≈ 3.39 µM) | MIC ([1]; strain 1197 (Botswana CSF/AIDS), no visible growth): 3.13 µg/mL (≈ 3.39 µM) | MIC ([1]; strain H99O (lab strain), no visible growth): 3.13 µg/mL (≈ 3.39 µM) | MIC ([1]; strain H99 stud (lab strain), no visible growth): 3.13 µg/mL (≈ 3.39 µM) | MIC ([2]; Cryptococcus neoformans, ATCC32269, strain ATCC 32269): 3.13 µg/mL (≈ 3.39 µM) | MIC ([2]; Cryptococcus neoformans, ATCC32609, strain ATCC 32609 (NIH444)): 3.13 µg/mL (≈ 3.39 µM) | MIC ([2]; Cryptococcus neoformans, ATCC34878, strain ATCC 34878): 3.13 µg/mL (≈ 3.39 µM) | MIC ([2]; Cryptococcus neoformans, ATCC34882, strain ATCC 34882): 3.13 µg/mL (≈ 3.39 µM) | MIC ([2]; Cryptococcus neoformans, strain 93/980 (CSF France)): 3.13 µg/mL (≈ 3.39 µM) | MIC ([2]; Cryptococcus neoformans, strain 94/943-6 (CSF Mexico)): 3.13 µg/mL (≈ 3.39 µM) | MIC ([2]; Cryptococcus neoformans, strain 94/943-8 (CSF Mexico)): 3.13 µg/mL (≈ 3.39 µM) | MIC ([2]; Cryptococcus neoformans, strain R270 (Vancouver Island)): 12.5 µg/mL (≈ 13.5 µM) | MIC ([2]; strain 96/1120-2 (CSF HIV2 France)): 12.5 µg/mL (≈ 13.5 µM) | MIC ([3]; strain WM 01.127 (USA)): 3.13 µg/mL (≈ 3.39 µM) | MIC ([3]; strain WM 02.141 (Russia)): 3.13 µg/mL (≈ 3.39 µM) | MIC ([3]; strain WM 02.143 (Russia)): 3.13 µg/mL (≈ 3.39 µM) | MIC ([3]; strain WM 02.37 (Canada)): 3.13 µg/mL (≈ 3.39 µM) | MIC ([3]; strain WM 04.168 (Chile)): 3.13 µg/mL (≈ 3.39 µM) | MIC ([3]; strain WM 04.171 (Thailand, environmental)): 3.13 µg/mL (≈ 3.39 µM) | MIC ([3]; strain WM 05.467 (Brazil, environmental)): 3.13 µg/mL (≈ 3.39 µM) | MIC ([3]; strain WM 05.515 (Peru)): 3.13 µg/mL (≈ 3.39 µM) | MIC ([3]; strain WM 09.109 (Italy, environmental)): 3.13 µg/mL (≈ 3.39 µM) | MIC ([3]; strain WM 09.112 (USA)): 3.13 µg/mL (≈ 3.39 µM) | MIC ([3]; strain WM 10.119 (Australia)): 3.13 µg/mL (≈ 3.39 µM) | MIC ([3]; strain WM 629 (Australia)): 3.13 µg/mL (≈ 3.39 µM) | MIC ([3]; strain WM 1706 (Argentina)): 3.13 µg/mL (≈ 3.39 µM) | MIC ([3]; strain WM 1740 (Chile)): 3.13 µg/mL (≈ 3.39 µM) | MIC ([3]; strain WM 2207 (USA, environmental)): 3.13 µg/mL (≈ 3.39 µM) | MIC ([3]; strain WM 2242 (USA)): 3.13 µg/mL (≈ 3.39 µM) | MIC ([3]; strain WM 2530 (USA)): 3.13 µg/mL (≈ 3.39 µM)

CCCCCCC[C@@H](O)CC(=O)N[C@H](C)C(=O)N[C@H]1CCNC(=O)[C@H](CC(C)C)NC(=O)[C@H](CCN)NC(=O)[C@H](CCN)NC(=O)[C@H](CC(C)C)NC(=O)[C@@H](Cc2ccccc2)NC(=O)[C@H](CCN)NC1=O [Compound P1D] ({Decanoyl(3R-OH)}-[dA][Dab][Dab][dF]L[Dab][Dab]L; lactam 2-C)
MICs against various Cryptococcus strains: MMRL 2651 (C. gattii MMRL 2651; Table 2, C. gattii, triplicate, values consistent across replicates): 12.5 µg/mL | MICs against various Cryptococcus strains: ATCC 90113 (C. neoformans ATCC 90113): 6.25 µg/mL | MICs against various Cryptococcus strains: H99 (C. neoformans H99): 6.25 µg/mL | MICs against various Cryptococcus strains: H99 (cap59Δ) [4]: 12.5 µg/mL

CCCCCCC[C@@H](O)CC(=O)N[C@@H](C)C(=O)N[C@H]1CCNC(=O)[C@H](CC(C)C)NC(=O)[C@H](CCN)NC(=O)[C@H](CCN)NC(=O)[C@H](CC(C)C)NC(=O)[C@@H](Cc2ccccc2)NC(=O)[C@H](CCN)NC1=O [Compound P1L] ({Decanoyl(3R-OH)}-A[Dab][Dab][dF]L[Dab][Dab]L; lactam 2-C)
MICs against various Cryptococcus strains: MMRL 2651 (C. gattii MMRL 2651; 72 h): 12.5 µg/mL | MICs against various Cryptococcus strains: ATCC 90113 (C. neoformans ATCC 90113): 12.5 µg/mL | MICs against various Cryptococcus strains: H99 (C. neoformans H99): 12.5 µg/mL | MICs against various Cryptococcus strains: H99 (cap59Δ) [4]: 25.0 µg/mL
